A short description of experiment [1]: Inhibition of recombinant NDM-1 (unknown origin) using fluorocillin as substrate at 30 uM incubated for 30 mins by fluorescence based assay. The conditions noted are these: Bacteria.
The nature of experiment [2]: Inhibition of recombinant NDM-1 (unknown origin) using fluorocillin as substrate at 10 uM incubated for 30 mins by fluorescence based assay. The conditions noted are these: Bacteria.
Experiment [3] can be described thus: Inhibition of recombinant NDM-1 (unknown origin) using fluorocillin as substrate at 3 uM incubated for 30 mins by fluorescence based assay. The note with it: Bacteria.
The subject of experiment [4] is Bacteria. Kind of experiment: Inhibition of recombinant VIM-1 (unknown origin) using fluorocillin as substrate at 3 uM incubated for 30 mins by fluorescence based assay.
The test system of experiment [5] is Bacteria. Kind of experiment: Inhibition of recombinant IMP-1 (unknown origin) using fluorocillin as substrate at 3 uM incubated for 30 mins by fluorescence based assay.
Experiment [6] has as its system Bacteria. Kind of experiment: Inhibition of recombinant IMP-1 (unknown origin) using fluorocillin as substrate at 10 uM incubated for 30 mins by fluorescence based assay.
Experiment [7] deals with Bacteria. Kind of experiment: Inhibition of recombinant VIM-1 (unknown origin) using fluorocillin as substrate at 30 uM incubated for 30 mins by fluorescence based assay.
In experiment [8] the test system is Bacteria. Kind of experiment: Inhibition of recombinant VIM-1 (unknown origin) using fluorocillin as substrate at 10 uM incubated for 30 mins by fluorescence based assay.
For experiment [9], the system named is Bacteria. Kind of experiment: Inhibition of recombinant IMP-1 (unknown origin) using fluorocillin as substrate at 30 uM incubated for 30 mins by fluorescence based assay.

A value given as a limit tells only on which side of the number the result lay.

Broadly, the inhibition is the drop in the measured response relative to a control, in per cent.

On to `CC(=O)Nc1ccc([N+](=O)[O-])c2cccnc12`, for which the inhibition in [1], in experiment [2] and in experiment [3] was less than 20% throughout.
For `N#CCNC(=O)c1ccc2cccc(O)c2n1`, the inhibition in experiment [1], in [2] and in [3] was less than 20% in each case.
Turning to `O=C(O)C[C@H](NCCN[C@@H](CC(=O)O)C(=O)O)C(=O)O`, the inhibition was determined as 86% in experiment [1], 84% in experiment [2] and 84% in experiment [3].
On to `N#Cc1ccc2c([N+](=O)[O-])cc([N+](=O)[O-])c(O)c2n1`, for which the inhibition in [1], in experiment [2] and in experiment [3] was less than 20% each time.
Turning to `N#Cc1ccc2ccc([N+](=O)[O-])c(O)c2n1`, the inhibition in [1], in experiment [2] and in [3] was less than 20% throughout.
In the case of `CN(C)Cc1ccc2c([N+](=O)[O-])ccc(O)c2n1`, the inhibition in experiment [1], in experiment [2] and in experiment [3] was less than 20% in each case.
Consider `Nc1ccc2cccc(O)c2n1`, for which the inhibition in [1], in experiment [2] and in [3] was less than 20% each time.
As to `CN(C)Cc1ccc2c(Cl)cc(Cl)c(O)c2n1`, the inhibition was 69% in experiment [1], less than 20% in experiment [2] and less than 20% in [3].
As for `Oc1ccc(F)c2cccnc12`, the inhibition in experiment [1], in experiment [2] and in experiment [3] was less than 20% throughout.
As for `Nc1c(O)cc(S(=O)(=O)O)c2ccccc12`, the inhibition in experiment [1], in experiment [2] and in experiment [3] was less than 20% throughout.
For the compound `Nc1c([N+](=O)[O-])cc([N+](=O)[O-])c2cccnc12`, the inhibition in experiment [1], in experiment [2] and in [3] was less than 20% throughout.
Regarding `O=[N+]([O-])c1cc(O)c2ncccc2c1`, the inhibition in [1] is 95%; in experiment [2], less than 20%; in experiment [3], less than 20%.
On to `Cc1ccc2c([N+](=O)[O-])ccc(O)c2n1`, for which the inhibition in [1] is 35%; in experiment [2], less than 20%; in [3], less than 20%.
As for `N#CCN(Cc1ccccc1)C(=O)c1ccc2cccc(O)c2n1`, the inhibition in [1], in [2] and in experiment [3] was less than 20% throughout.
Take `CN(CC#N)C(=O)c1ccc2c([N+](=O)[O-])cc([N+](=O)[O-])c(O)c2n1`: the inhibition in experiment [1], in [2] and in experiment [3] was less than 20% in each case.
`O=C(O)c1ccc(O)c2ncccc12`: the inhibition in experiment [1] was 39%; in experiment [2], less than 20%; in experiment [3], less than 20%.
Regarding `O=C(O)COc1cccc2cccnc12`, the inhibition in experiment [1], in experiment [2] and in experiment [3] was less than 20% in each case.
As for `O=[N+]([O-])c1ccc(N2CCCC2)c2ncccc12`, the inhibition in experiment [1], in experiment [2] and in [3] was less than 20% each time.
`O=S(=O)(O)c1ccc(O)c2ncccc12`: the results for the inhibition in experiment [1], in [2] and in [3] were 67%, less than 20% and less than 20%, respectively.
Turning to `N#CCNCc1cc([N+](=O)[O-])c2cccnc2c1O`, the inhibition in experiment [1] was determined as 98%; in experiment [4], 95%; in experiment [5], 43%; in [6] it was 91%; in experiment [7], 99%; in experiment [8] it was 99%. For the same compound, the inhibition in [2] came out at 89%; in experiment [9], 96%; in experiment [3] it was 64%.
Turning to `NC(=O)c1ccc([N+](=O)[O-])c2cccnc12`, the inhibition in [1], in experiment [2] and in experiment [3] was less than 20% throughout.
On to `N#CC1(NC(=O)c2ccc3c([N+](=O)[O-])ccc(O)c3n2)CC1`, for which the inhibition in experiment [1], in [2] and in experiment [3] was less than 20% throughout.
Take `CN(CC#N)C(=O)c1ccc2cccc(O)c2n1`: the inhibition in experiment [1], in experiment [2] and in experiment [3] was less than 20% each time.
`N#CCNC(=O)c1ccc2c([N+](=O)[O-])ccc(O)c2n1`: the inhibition in experiment [1], in experiment [2] and in experiment [3] was less than 20% each time.
Regarding `O=[N+]([O-])c1cc(CNCc2ccccc2)c(O)c2ncccc12`, the inhibition in experiment [1] is 76%; in [2], 23%; in experiment [3] it was less than 20%.
In the case of `O=[N+]([O-])c1cc([N+](=O)[O-])c2cccnc2c1O`, the inhibition in [1], in experiment [2] and in experiment [3] was less than 20% throughout.
With `O=S(=O)(O)c1ccc(O)c2ccccc12`, the inhibition in experiment [1], in experiment [2] and in [3] was less than 20% throughout.
On to `Cc1ccc2cccc(O)c2n1`, for which the inhibition in experiment [1], in experiment [2] and in experiment [3] was less than 20% in each case.
In the case of `Oc1c(Cl)cc(Cl)c2cccnc12`, the inhibition came to 99% in [1]; 23% in [4]; 34% in [5]; 95% in experiment [6]; 97% in [7]; 90% in [8]. Also, the values for the inhibition in [2], in experiment [9] and in experiment [3] were 98%, 97% and less than 20%, respectively.
With `O=C(c1cc([N+](=O)[O-])c2cccnc2c1O)N1CCOCC1`, the inhibition in [1] is 16%; in experiment [2], less than 20%; in [3] it was less than 20%.
For `c1cnc2c(c1)ccc1cccnc12`, the inhibition in experiment [1] is 68%; in experiment [2], less than 20%; in experiment [3], less than 20%.
Consider `CCNCc1cc([N+](=O)[O-])c2cccnc2c1O`, for which the inhibition is 88% in [1]; less than 20% in [4]; less than 20% in [5]; 53% in experiment [6]; 98% in experiment [7]; 53% in experiment [8]. Moreover, the figures for the inhibition in [2], in [9] and in experiment [3] were 40%, 92% and less than 20%, respectively.
As to `O=C(O)c1ccc2c([N+](=O)[O-])ccc(O)c2n1`, the inhibition was found to be 100% in [1]; 70% in experiment [4]; 74% in experiment [5]; 96% in experiment [6]; 99% in experiment [7]; 99% in [8]. Besides, the inhibition in [2] is 95%; in experiment [9] it was 99%; in [3] it was 20%.
With `CN(CC#N)Cc1cc([N+](=O)[O-])c2cccnc2c1O`, the inhibition is 82% in experiment [1], less than 20% in [2] and less than 20% in [3].
Take `O=[N+]([O-])c1ccc(O)c2ccccc12`: the inhibition in experiment [1], in experiment [2] and in experiment [3] was less than 20% in each case.
With `O=C(O)c1cc(O)c2ncccc2c1`, the inhibition in experiment [1], in experiment [2] and in experiment [3] was less than 20% each time.
Turning to `N#Cc1ccc2cccc(O)c2n1`, the inhibition in [1], in [2] and in experiment [3] was less than 20% each time.
With `CN(CC#N)C(=O)c1ccc2c([N+](=O)[O-])ccc(O)c2n1`, the inhibition in experiment [1], in experiment [2] and in experiment [3] was less than 20% in each case.
For `N#CCN(Cc1ccccc1)C(=O)c1ccc2c([N+](=O)[O-])cc([N+](=O)[O-])c(O)c2n1`, the inhibition in experiment [1], in experiment [2] and in [3] was less than 20% throughout.
Take `Cc1ccc2c([N+](=O)[O-])cc([N+](=O)[O-])c(O)c2n1`: the inhibition in [1], in experiment [2] and in [3] was less than 20% in each case.
As to `Oc1ccc2cccc(O)c2n1`, the inhibition in [1], in experiment [2] and in [3] was less than 20% each time.
Consider `N#CCOc1ccc([N+](=O)[O-])c2cccnc12`, for which the inhibition in experiment [1], in experiment [2] and in experiment [3] was less than 20% each time.
Take `O=C(O)c1ccc([N+](=O)[O-])c2cccnc12`: the inhibition in [1], in experiment [2] and in experiment [3] was less than 20% throughout.
Regarding `Oc1ccc(C(F)(F)F)c2cccnc12`, the inhibition in experiment [1] is less than 20%; in experiment [2], less than 20%; in experiment [3] it was 13%.
As for `Oc1ccc(Cl)c2cccnc12`, the inhibition in [1] is 60%; in experiment [2], less than 20%; in [3], less than 20%.
Turning to `N#CC1(NC(=O)c2cc([N+](=O)[O-])c3cccnc3c2O)CC1`, the inhibition in [1], in experiment [2] and in experiment [3] was less than 20% each time.
With `N#CCN(Cc1ccccc1)C(=O)c1ccc2c([N+](=O)[O-])ccc(O)c2n1`, the inhibition in experiment [1], in experiment [2] and in [3] was less than 20% throughout.
Turning to `O=C(O)c1cc([N+](=O)[O-])c2cccnc2c1O`, the inhibition in experiment [1], in [2] and in experiment [3] was less than 20% each time.
Turning to `O=C(O)CN(CCN(CC(=O)O)CC(=O)O)CC(=O)O`, the inhibition stood at 87% in experiment [1], 87% in [2] and 84% in experiment [3].
As to `Cc1cc(C)c2cccnc2c1O`, the inhibition in experiment [1], in experiment [2] and in [3] was less than 20% in each case.

Source of the values: ChEMBL document CHEMBL5046233, “Nitroxoline and its derivatives are potent inhibitors of metallo-β-lactamases” (Eur J Med Chem, 2022).
